Laboratory results: ChEMBL document CHEMBL1201862, “PubChem BioAssay data set” (2004)
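Cultured in 96-well plates, cells were exposed to test compound for 48 hours across five concentrations. At the GI50, growth is halved.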 Calls of active or inactive are those of the source. Rule as the data show it: active = GI50 up to about 1.1 µM and inactive = higher.

What was measured:
Assay in all cases: DTP human tumour cell line panel, 48 h
M14 = tested on: M14
CCRF-CEM = tested on: CCRF-CEM
SNB-75 = tested on: SNB-75
HCC 2998 = tested on: HCC 2998
ACHN = tested on: ACHN
U-251 = tested on: U-251
OVCAR-5 = tested on: OVCAR-5
SNB-19 = tested on: SNB-19
786-0 = tested on: 786-0
TK-10 = tested on: TK-10
SF-295 = tested on: SF-295
SK-MEL-2 = tested on: SK-MEL-2
NCI-H23 = tested on: NCI-H23
SK-MEL-5 = tested on: SK-MEL-5
UACC-62 = tested on: UACC-62
SN12C = tested on: SN12C
KM12 = tested on: KM12

Measured: GI50

Cc1cccc(/N=C2\NC(=O)C(CC(=O)Nc3ccc(C)cc3C)S2)c1 (centres undefined)
inactive: M14 > 100 µM | CCRF-CEM 92 µM | SNB-75 > 100 µM | HCC 2998 > 100 µM | ACHN > 100 µM | U-251 > 100 µM | OVCAR-5 88.1 µM | SNB-19 74.8 µM | 786-0 > 100 µM | TK-10 > 100 µM | SF-295 61.9 µM | SK-MEL-2 > 100 µM | NCI-H23 57 µM | SK-MEL-5 94 µM | UACC-62 68.2 µM | SN12C > 100 µM

Cn1cnc([N+](=O)[O-])c1Sc1nccc(O)n1
inactive: M14 > 100 µM | CCRF-CEM > 100 µM | SNB-75 > 100 µM | HCC 2998 > 100 µM | ACHN > 100 µM | U-251 > 100 µM | OVCAR-5 > 100 µM | SNB-19 > 100 µM | 786-0 > 100 µM | TK-10 > 100 µM | SF-295 > 100 µM | SK-MEL-2 > 100 µM | NCI-H23 > 100 µM | SK-MEL-5 > 100 µM | UACC-62 > 100 µM | KM12 > 100 µM | SN12C > 100 µM

CC1=C2C(O)C(C(C)CO)C(O)CC2(C)C(O)CC1 (centres undefined)
inactive: M14 > 100 µM | CCRF-CEM > 100 µM | SNB-75 > 100 µM | HCC 2998 > 100 µM | ACHN > 100 µM | U-251 > 100 µM | OVCAR-5 > 100 µM | SNB-19 > 100 µM | 786-0 > 100 µM | TK-10 > 100 µM | SF-295 > 100 µM | SK-MEL-5 > 100 µM | UACC-62 > 100 µM | KM12 > 100 µM | SN12C > 100 µM

C/C(=C1/N=C(c2cc([N+](=O)[O-])ccc2Cl)N(C2=CC=C(Cl)CC2)C1=O)c1cc2ccccc2oc1=O
inactive: M14 23.9 µM | CCRF-CEM 40.3 µM | SNB-75 32.4 µM | HCC 2998 24.7 µM | ACHN 3.93 µM | U-251 49.2 µM | OVCAR-5 41.5 µM | SNB-19 44.1 µM | SF-295 41.7 µM | NCI-H23 14.4 µM | SK-MEL-5 24.3 µM | UACC-62 29.2 µM | KM12 19.9 µM | SN12C 23.4 µM

COC(=O)C1=C(C)N(NC(=O)c2ccccc2)C2(O)CCCC(=O)C12C (centres undefined)
inactive: M14 > 100 µM | SNB-75 63.5 µM | ACHN > 100 µM | U-251 > 100 µM | OVCAR-5 > 100 µM | SNB-19 > 100 µM | TK-10 > 100 µM | SF-295 > 100 µM | SK-MEL-2 > 100 µM | NCI-H23 > 100 µM | SK-MEL-5 > 100 µM | UACC-62 > 100 µM | KM12 > 100 µM | SN12C > 100 µM

COc1ccc(/C(=N\NC(=O)NN)C(c2ccc(OC)cc2)C2(O)C(=O)Nc3c(Cl)cc(Cl)cc32)cc1 (centres undefined)
inactive: M14 > 100 µM | CCRF-CEM 13.8 µM | SNB-75 > 100 µM | HCC 2998 > 100 µM | ACHN > 100 µM | U-251 > 100 µM | OVCAR-5 > 100 µM | SNB-19 > 100 µM | 786-0 61.4 µM | TK-10 > 100 µM | SF-295 > 100 µM | SK-MEL-2 > 100 µM | NCI-H23 > 100 µM | SK-MEL-5 > 100 µM | UACC-62 > 100 µM | KM12 > 100 µM | SN12C > 100 µM

O=[N+]([O-])c1cccc(C2=NOC3CCCC23)c1 (centres undefined)
inactive: M14 > 100 µM | CCRF-CEM > 100 µM | SNB-75 > 100 µM | HCC 2998 > 100 µM | ACHN > 100 µM | U-251 > 100 µM | OVCAR-5 > 100 µM | SNB-19 25.2 µM | 786-0 > 100 µM | TK-10 > 100 µM | SF-295 > 100 µM | SK-MEL-2 > 100 µM | NCI-H23 > 100 µM | SK-MEL-5 > 100 µM | UACC-62 > 100 µM | KM12 > 100 µM | SN12C > 100 µM

CC(C)c1ccc(O)c(=O)cc1 [GAMMA-THUJAPLICIN]
inactive: M14 7.64 µM | CCRF-CEM 1.86 µM | SNB-75 20.6 µM | HCC 2998 7.08 µM | ACHN 6.05 µM | U-251 7.29 µM | OVCAR-5 14.3 µM | SNB-19 7.74 µM | 786-0 5.87 µM | TK-10 16.1 µM | SF-295 4.02 µM | SK-MEL-2 5 µM | NCI-H23 7.38 µM | SK-MEL-5 9.35 µM | UACC-62 3.53 µM | KM12 6.32 µM | SN12C 8.38 µM

CCOC(=O)/C(=C/c1ccccn1)C(=O)c1ccccc1
inactive: M14 15.1 µM | CCRF-CEM 2.81 µM | SNB-75 13.8 µM | HCC 2998 17.3 µM | ACHN 20.4 µM | U-251 14.3 µM | OVCAR-5 19.1 µM | SNB-19 17.6 µM | 786-0 12.8 µM | TK-10 17.5 µM | SF-295 13 µM | SK-MEL-2 13.9 µM | NCI-H23 15.8 µM | SK-MEL-5 14.3 µM | UACC-62 9.59 µM | KM12 11.9 µM | SN12C 13.7 µM

CCN(CC)C(=S)SS(C)(=O)=O
inactive: M14 18.2 µM | SNB-75 29.6 µM | ACHN 16.7 µM | U-251 17.7 µM | OVCAR-5 19.4 µM | SNB-19 23.9 µM | 786-0 19.2 µM | TK-10 18.3 µM | SF-295 18.9 µM | SK-MEL-2 17.7 µM | NCI-H23 19.9 µM | SK-MEL-5 25.5 µM | UACC-62 15.1 µM | KM12 17.1 µM | SN12C 16 µM

CCOC(=O)C12CC1(C(=O)OCC)C1CCC2C1 (centres undefined)
inactive: M14 > 100 µM | CCRF-CEM > 100 µM | HCC 2998 > 100 µM | ACHN > 100 µM | U-251 > 100 µM | OVCAR-5 > 100 µM | SNB-19 > 100 µM | 786-0 > 100 µM | TK-10 > 100 µM | SF-295 > 100 µM | NCI-H23 > 100 µM | SK-MEL-5 54.1 µM | UACC-62 > 100 µM | SN12C > 100 µM

CC(=O)OCC1OC(Nc2nc(O)n(C)c(=O)c2-c2csc(N)n2)C(OC(C)=O)C(OC(C)=O)C1OC(C)=O (centres undefined)
inactive: M14 > 100 µM | CCRF-CEM 67.6 µM | SNB-75 > 100 µM | ACHN > 100 µM | U-251 > 100 µM | OVCAR-5 > 100 µM | SNB-19 > 100 µM | 786-0 > 100 µM | TK-10 > 100 µM | SF-295 > 100 µM | SK-MEL-2 > 100 µM | NCI-H23 > 100 µM | SK-MEL-5 > 100 µM | UACC-62 > 100 µM | KM12 > 100 µM | SN12C > 100 µM
